# Source: ChEMBL document CHEMBL1201862, “PubChem BioAssay data set” (2004)
#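 48-hour exposure; five concentrations; linearly interpolated endpoints. GI50 is the concentration that inhibits growth by half.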 Active and inactive are the calls of the source. Cut-off read from the data, not from the text of the source: active = GI50 up to about 1.1 µM and inactive = higher.
# How the values were obtained:
# Assay in all cases: NCI anticancer screen, dose series, 48 h
# [1] = system: NCI-H226
# [2] = system: RPMI-8226
# [3] = system: KM12
# [4] = system: HCT-15
# [5] = system: PC-3
# [6] = system: EKVX
# [7] = system: SK-MEL-5
# [8] = system: SK-MEL-2
# [9] = system: HOP-92
# [10] = system: IGROV-1
# [11] = system: RXF 393
# [12] = system: OVCAR-5
# [13] = system: SW-620
# [14] = system: SN12C
# [15] = system: HCT-116
# [16] = system: Malme-3M
# [17] = system: LOX IMVI
# [18] = system: UACC-62
# [19] = system: Hs-578T
# [20] = system: CCRF-CEM
# [21] = system: MDA-N
# [22] = system: OVCAR-8
# [23] = system: TK-10
# [24] = system: 786-0
# [25] = system: BT-549
# [26] = system: MOLT-4
# [27] = system: SF-268
# [28] = system: SF-539
# [29] = system: SF-295
# [30] = system: A498
# [31] = system: SNB-75
# [32] = system: OVCAR-4
# [33] = system: SNB-19
# [34] = system: M14
# [35] = system: HCC 2998
# [36] = system: U-251
# [37] = system: COLO 205
# [38] = system: MDA-MB-231
# [39] = system: UACC-257
# [40] = system: NCI-H460
# [41] = system: CAKI-1
# [42] = system: ACHN
# [43] = system: A549
# [44] = system: K562
# [45] = system: HL-60
# [46] = system: NCI/ADR-RES
# [47] = system: MDA-MB-435
# [48] = system: HOP-62
# [49] = system: SK-OV-3
# [50] = system: MCF7
# [51] = system: NCI-H522
# [52] = system: HT-29
# [53] = system: UO-31
# [54] = system: NCI-H23
# [55] = system: SK-MEL-28
# [56] = system: SR
# [57] = system: OVCAR-3
# [58] = system: DU-145
structure (smiles),measurement,setting,value
CCN(CC)CCN1C(=O)c2c(c(-c3ccccc3)c3ccccc3c2-c2ccccc2)C1=O,GI50,[1],> 100 µM (inactive)
same,GI50,[2],> 100 µM (inactive)
same,GI50,[3],> 100 µM (inactive)
same,GI50,[4],> 100 µM
same,GI50,[5],> 100 µM (inactive)
same,GI50,[6],> 100 µM (inactive)
same,GI50,[7],> 100 µM (inactive)
same,GI50,[8],> 100 µM (inactive)
same,GI50,[9],36.8 µM (inactive)
same,GI50,[10],> 100 µM (inactive)
same,GI50,[11],25.8 µM (inactive)
same,GI50,[12],> 100 µM (inactive)
same,GI50,[13],> 100 µM (inactive)
same,GI50,[14],> 100 µM (inactive)
same,GI50,[15],> 100 µM (inactive)
same,GI50,[16],> 100 µM (inactive)
same,GI50,[17],> 100 µM (inactive)
same,GI50,[18],> 100 µM (inactive)
same,GI50,[19],> 100 µM (inactive)
same,GI50,[20],> 100 µM (inactive)
same,GI50,[21],> 100 µM (inactive)
same,GI50,[22],> 100 µM (inactive)
same,GI50,[23],> 100 µM (inactive)
same,GI50,[24],37.6 µM (inactive)
same,GI50,[25],> 100 µM (inactive)
same,GI50,[26],> 100 µM (inactive)
same,GI50,[27],> 100 µM (inactive)
same,GI50,[28],54.1 µM (inactive)
same,GI50,[29],71.6 µM (inactive)
same,GI50,[30],> 100 µM (inactive)
same,GI50,[31],> 100 µM (inactive)
same,GI50,[32],> 100 µM (inactive)
same,GI50,[33],46.3 µM (inactive)
same,GI50,[34],> 100 µM (inactive)
same,GI50,[35],> 100 µM (inactive)
same,GI50,[36],81.7 µM (inactive)
same,GI50,[37],> 100 µM (inactive)
same,GI50,[38],> 100 µM (inactive)
same,GI50,[39],> 100 µM (inactive)
same,GI50,[40],> 100 µM (inactive)
same,GI50,[41],> 100 µM (inactive)
same,GI50,[42],> 100 µM (inactive)
same,GI50,[43],> 100 µM (inactive)
same,GI50,[44],> 100 µM (inactive)
same,GI50,[45],> 100 µM (inactive)
same,GI50,[46],> 100 µM (inactive)
same,GI50,[47],> 100 µM (inactive)
same,GI50,[48],71.1 µM (inactive)
same,GI50,[49],> 100 µM (inactive)
same,GI50,[50],> 100 µM (inactive)
same,GI50,[51],> 100 µM (inactive)
same,GI50,[52],> 100 µM (inactive)
COc1ccc(C2OC(=O)c3c2ccc2ccccc32)c(C)c1 (centres undefined),GI50,[1],5.25 µM (inactive)
same,GI50,[2],3.18 µM (inactive)
same,GI50,[3],2.38 µM (inactive)
same,GI50,[4],1.93 µM
same,GI50,[5],3.27 µM (inactive)
same,GI50,[6],6.07 µM (inactive)
same,GI50,[7],1.77 µM (inactive)
same,GI50,[8],1.34 µM (inactive)
same,GI50,[9],8.04 µM (inactive)
same,GI50,[10],4.79 µM (inactive)
same,GI50,[11],2.69 µM (inactive)
same,GI50,[12],13.2 µM (inactive)
same,GI50,[13],1.14 µM (inactive)
same,GI50,[14],1.21 µM (inactive)
same,GI50,[15],3.81 µM (inactive)
same,GI50,[16],1 µM (active)
same,GI50,[53],5.4 µM (inactive)
same,GI50,[18],7.19 µM (inactive)
same,GI50,[19],3.44 µM (inactive)
same,GI50,[21],0.499 µM (active)
same,GI50,[22],4.06 µM (inactive)
same,GI50,[23],2.94 µM (inactive)
same,GI50,[24],3.33 µM (inactive)
same,GI50,[54],5.41 µM (inactive)
same,GI50,[25],10.5 µM (inactive)
same,GI50,[26],2.73 µM (inactive)
same,GI50,[30],1.93 µM (inactive)
same,GI50,[31],2.93 µM (inactive)
same,GI50,[33],4.8 µM (inactive)
same,GI50,[34],1.32 µM (inactive)
same,GI50,[35],1.02 µM (active)
same,GI50,[36],3.43 µM (inactive)
same,GI50,[37],1.15 µM (inactive)
same,GI50,[38],3 µM (inactive)
same,GI50,[55],2.92 µM (inactive)
same,GI50,[39],3.78 µM (inactive)
same,GI50,[40],3.3 µM (inactive)
same,GI50,[42],5.93 µM (inactive)
same,GI50,[43],3.07 µM (inactive)
same,GI50,[56],2.42 µM (inactive)
same,GI50,[44],0.697 µM (active)
same,GI50,[45],2.33 µM (inactive)
same,GI50,[48],3.48 µM (inactive)
same,GI50,[50],3.45 µM (inactive)
same,GI50,[52],3.37 µM (inactive)
CC(C)=CCc1cc(/C=C/C(=O)O)cc(CC=C(C)C)c1O [ARTEPILLIN],GI50,[2],76.6 µM (inactive)
same,GI50,[57],> 100 µM (inactive)
same,GI50,[3],76 µM (inactive)
same,GI50,[4],76 µM
same,GI50,[5],> 100 µM (inactive)
same,GI50,[6],81.7 µM (inactive)
same,GI50,[7],> 100 µM (inactive)
same,GI50,[8],> 100 µM (inactive)
same,GI50,[9],19.7 µM (inactive)
same,GI50,[10],73.5 µM (inactive)
same,GI50,[12],> 100 µM (inactive)
same,GI50,[13],> 100 µM (inactive)
same,GI50,[14],> 100 µM (inactive)
same,GI50,[15],> 100 µM (inactive)
same,GI50,[53],87.5 µM (inactive)
same,GI50,[17],43.7 µM (inactive)
same,GI50,[18],66.8 µM (inactive)
same,GI50,[19],> 100 µM (inactive)
same,GI50,[20],> 100 µM (inactive)
same,GI50,[21],> 100 µM (inactive)
same,GI50,[22],> 100 µM (inactive)
same,GI50,[23],> 100 µM (inactive)
same,GI50,[24],> 100 µM (inactive)
same,GI50,[54],> 100 µM (inactive)
same,GI50,[25],> 100 µM (inactive)
same,GI50,[26],> 100 µM (inactive)
same,GI50,[27],> 100 µM (inactive)
same,GI50,[28],> 100 µM (inactive)
same,GI50,[29],> 100 µM (inactive)
same,GI50,[30],> 100 µM (inactive)
same,GI50,[32],> 100 µM (inactive)
same,GI50,[58],> 100 µM (inactive)
same,GI50,[33],> 100 µM (inactive)
same,GI50,[34],> 100 µM (inactive)
same,GI50,[36],> 100 µM (inactive)
same,GI50,[37],> 100 µM (inactive)
same,GI50,[38],> 100 µM (inactive)
same,GI50,[39],> 100 µM (inactive)
same,GI50,[40],> 100 µM (inactive)
same,GI50,[41],> 100 µM (inactive)
same,GI50,[42],> 100 µM (inactive)
same,GI50,[43],> 100 µM (inactive)
same,GI50,[56],> 100 µM (inactive)
same,GI50,[44],76 µM (inactive)
same,GI50,[45],> 100 µM (inactive)
same,GI50,[46],> 100 µM (inactive)
same,GI50,[47],> 100 µM (inactive)
same,GI50,[48],> 100 µM (inactive)
same,GI50,[49],> 100 µM (inactive)
same,GI50,[50],> 100 µM (inactive)
same,GI50,[51],31.3 µM (inactive)
same,GI50,[52],47.3 µM (inactive)
